Test results taken from publication PMC6018403 (Frontiers in Pharmacology, 2018).
Read-outs that look alike come from different tables or passages of the source.

Assay: Multi-component pharmacokinetic study of GQD, GQD-GC and single herb extracts in rats (plasma, LC/MS/MS)
Assay type: in vivo, Sprague-Dawley rats
Conditions: for Cmax / Tmax / half-life / AUC(0-t): male, Sprague-Dawley, rat
Experimental: Male Sprague-Dawley rats (220–250 g) were used for PK study, and the details were described in Supplemental Data. All procedures were in accordance with the National Institutes of Health Guide for the Care and Use of Laboratory Animals.
For PK study of GQD and its component herbs, rats were randomly divided into six groups (n = 10 for each group) before oral administration.
All blood samples were immediately centrifuged at 6,000 rpm (4°C) for 20 min to obtain plasma. The plasma samples were stored at −80°C.
A Finnigan TSQ Quantum triple quadrupole mass spectrometer was connected to a Surveyor HPLC via ESI interface (ThermoFisher). High purity nitrogen was used as the sheath and auxiliary gas; Ultra-high purity argon was used as the collision gas (1.5 mTorr). Q1 and Q3 quadrupoles were set at unit resolution. […] The column temperature was 40°C. The mobile phase consisted of acetonitrile containing 2% (v/v) methanol (A) and water containing 0.1% (v/v) formic acid (B). […] An aliquot of 5 μL was injected for analysis. UV spectra were obtained by scanning from 200 to 400 nm. The mass spectrometer was operated in the (+)-ESI mode. The optimized parameters were as follows: sheath gas (N2), 50 arb; auxiliary gas (N2), 5 arb; spray voltage, 4.0 kV; capillary temperature, 330°C; collision energy, see Table S1. Analytes were detected in the selected reaction monitoring (SRM) mode. Data were processed by Xcalibur 2.0.7 software (ThermoFisher).
LC/MS/MS calibration and quantitation data were processed with Xcalibur 2.0.7 software (ThermoFisher). The maximal plasma concentrations (Cmax) and their time of occurrence (Tmax) were obtained directly from the measured data. Other pharmacokinetic parameters were calculated by non-compartment or compartment models using WinNonlin® software (v6.1, Pharsight). Unless otherwise stated, results were expressed as the mean ± SD. Statistical significance in differences of the means was determined by Student's t–test, with a significance level of P < 0.05.
Herbal materials and extracts.
The four component herbs, Puerariae Lobatae Radix (Ge-Gen, GG), Scutellariae Radix (Huang-Qin, HQ), Coptidis Rhizoma (Huang-Lian, HL), and Glycyrrhizae Radix et Rhizoma Praeparata cum Melle (Gan-Cao, GC) were purchased from Tianheng Pharmacy. GQD was prepared by decocting the four component herbs […]
pre-extraction of Ge-Gen using 200 mL of water for 0.5 h. The decoctions were combined, filtered, and concentrated in vacuum at 50 °C. GQD-GC was prepared using the same procedure, except that Gan-Cao was removed from the formula. Final concentration of the GQD-GC extract was equivalent to 1.0 g of the crude drugs per mL. For single herb extracts, the herbs were decocted in 8-fold volume of water for […]
Final concentrations of the extracts were 1.0 g/mL for Ge-Gen, and 0.5 g/mL for Huang-Qin, Huang-Lian and […]
For pharmacokinetic study, Male Sprague-Dawley rats (220-250 g) were obtained from the Laboratory Animal Center of Peking University Health Science Center. The […]
The rats had free access to tap water and soy-free custom diet (Ke’ao Xieli Co.). All procedures were in accordance with the National Institutes of Health Guide for the Care and Use of Laboratory Animals […]
Experimental details for the PK study
1. Preparation of internal standard solution, calibration standard solutions, and quality control solutions […]
internal standard solution. Reference standard compounds were dissolved in the internal standard solution to prepare individual stock solutions (1.0 mg/mL). These […]
each compound. The standard solution was then serially diluted to obtain calibration […]
Quality control stock solutions were prepared at three concentration levels as high QC (HQC), middle QC (MQC), and low QC (LQC), based on linear ranges of the analytes.
2.1. Sample preparation for pharmacokinetic study
The calibration standard and quality control solutions for pharmacokinetic study were […]

[1] = plasma, po, 3.54 g/kg, HQ (Huang-Qin) group: rats, oral extract 3.54 g/kg, plasma, read-out: AUClast
[2] = plasma, po, 18.9 g/kg, GQD group: rats, oral GQD extract 18.9 g/kg, plasma, read-out: AUClast
[3] = GQD group: rats, oral GQD extract 18.9 g/kg, plasma, read-out: Cmax
[4] = GQD group: rats, oral GQD extract 18.9 g/kg, plasma, read-out: T1/2 (converted)
[5] = GQD group: rats, oral GQD extract 18.9 g/kg, plasma, read-out: Tmax
[6] = HQ (Huang-Qin) group: rats, oral extract 3.54 g/kg, plasma, read-out: Cmax
[7] = HQ (Huang-Qin) group: rats, oral extract 3.54 g/kg, plasma, read-out: T1/2 (converted)
[8] = HQ (Huang-Qin) group: rats, oral extract 3.54 g/kg, plasma, read-out: Tmax
[9] = in vivo, po, 18.9 g/kg, GQD group: rats, oral GQD extract 18.9 g/kg, plasma, read-out: AUClast
[10] = in vivo, GQD group: rats, oral GQD extract 18.9 g/kg, plasma, read-out: Cmax
[11] = in vivo, GQD group: rats, oral GQD extract 18.9 g/kg, plasma, read-out: T1/2 (converted)
[12] = in vivo, GQD group: rats, oral GQD extract 18.9 g/kg, plasma, read-out: Tmax

| SMILES | AUC(0-t) [1] | AUC(0-t) [2] | Cmax [3] | half-life [4] | Tmax [5] | Cmax [6] | half-life [7] | Tmax [8] | AUC(0-t) [9] | Cmax [10] | half-life [11] | Tmax [12] | other results |
| --- | --- | --- | --- | --- | --- | --- | --- | --- | --- | --- | --- | --- | --- |
| O=c1cc(-c2ccccc2)oc2cc(O)cc(O)c12 [Compound 18, chrysin] | – | – | – | – | – | – | – | – | – | – | – | – | Cmax (in vivo, po, 3.54 g/kg): 4.1 ± 0.44 ng/mL; Tmax (in vivo, po, 3.54 g/kg): 0.58 ± 0.23 h; half-life (in vivo, po, 3.54 g/kg): 4.87 ± 1.43 h; AUC(0-t) (in vivo, po, 3.54 g/kg, AUClast): 41.3 ± 1.34 ng·h/mL |
| O=C(O)[C@H]1O[C@@H](Oc2cc3oc(-c4ccccc4)cc(=O)c3c(O)c2O)[C@H](O)[C@@H](O)[C@@H]1O [Compound 17, baicalin] | 52600 ± 35500 ng·h/mL | 22300 ± 11200 ng·h/mL | 1180 ± 870 ng/mL | 4.8 ± 3.27 h | 7.29 ± 1.38 h | 4040 ± 584 ng/mL | 3.32 ± 1.08 h | 7.79 ± 0.99 h | – | – | – | – | AUC(0-t) (plasma, po, 3.54 g/kg, Huang-Qin group: rats, oral 3.54 g/kg, plasma, read-out: AUClast): 52600 ± 35500 ng·h/mL; AUC(0-t) (plasma, po, 16.5 g/kg, GQD-GC group (GQD without Gan-Cao): rats, oral 16.5 g/kg, plasma, read-out: AUClast): 39600 ± 2610 ng·h/mL; Cmax (GQD-GC group (GQD without Gan-Cao): rats, oral 16.5 g/kg, plasma, read-out: Cmax): 1890 ± 988 ng/mL; half-life (GQD-GC group (GQD without Gan-Cao): rats, oral 16.5 g/kg, plasma, read-out: T1/2 (converted)): 5.34 ± 2.55 h; Tmax (GQD-GC group (GQD without Gan-Cao): rats, oral 16.5 g/kg, plasma, read-out: Tmax): 7.71 ± 1.34 h; decrease of Cmax in the GQD group compared with the Huang-Qin group (rats, oral, GQD vs Huang-Qin): at least 30% |
| O=C(/C=C/c1ccc(O[C@@H]2O[C@H](CO)[C@@H](O)[C@H](O)[C@H]2O)cc1)c1ccc(O)cc1O [Compound 27, isoliquiritin] | – | – | – | – | – | – | – | – | 11.9 ± 2.4 ng·h/mL | 2.59 ± 2.43 ng/mL | 1.62 ± 0.33 h | 0.49 ± 1.01 h | AUC(0-t) (in vivo, po, 2.36 g/kg, GC (Gan-Cao) group: rats, oral extract 2.36 g/kg, plasma, read-out: AUClast): 8.46 ± 2.99 ng·h/mL; Cmax (in vivo, GC (Gan-Cao) group: rats, oral extract 2.36 g/kg, plasma, read-out: Cmax): 2.17 ± 0.98 ng/mL; half-life (in vivo, GC (Gan-Cao) group: rats, oral extract 2.36 g/kg, plasma, read-out: T1/2 (converted)): 0.91 ± 0.08 h; Tmax (in vivo, GC (Gan-Cao) group: rats, oral extract 2.36 g/kg, plasma, read-out: Tmax): 0.4 ± 1.23 h; plasma concentrations, effect of GQD compared with Gan-Cao (rats, oral): improved |
| COc1cc(-c2coc3c(C4OC(COC5OCC(O)(CO)C5O)C(O)C(O)C4O)c(O)ccc3c2=O)ccc1O (centres unmarked) [Compound 37, 3'-methoxymirificin] | – | – | – | – | – | – | – | – | 86.3 ± 23.9 ng·h/mL | 9.94 ± 3.68 ng/mL | 1.04 ± 0.04 h | 0.36 ± 0.03 h | AUC(0-t) (in vivo, po, 9.45 g/kg, GG (Ge-Gen) group: rats, oral extract 9.45 g/kg, plasma, read-out: AUClast): 47.4 ± 28.7 ng·h/mL; AUC(0-t) (in vivo, po, 16.5 g/kg, GQD-GC group (GQD without Gan-Cao): rats, oral 16.5 g/kg, plasma, read-out: AUClast): 42.5 ± 11.3 ng·h/mL; Cmax (in vivo, GG (Ge-Gen) group: rats, oral extract 9.45 g/kg, plasma, read-out: Cmax): 11.6 ± 0.56 ng/mL; half-life (in vivo, GG (Ge-Gen) group: rats, oral extract 9.45 g/kg, plasma, read-out: T1/2 (converted)): 1.37 ± 0.19 h; Tmax (in vivo, GG (Ge-Gen) group: rats, oral extract 9.45 g/kg, plasma, read-out: Tmax): 0.36 ± 0.74 h; Cmax (in vivo, GQD-GC group (GQD without Gan-Cao): rats, oral 16.5 g/kg, plasma, read-out: Cmax): 7.22 ± 3.27 ng/mL; half-life (in vivo, GQD-GC group (GQD without Gan-Cao): rats, oral 16.5 g/kg, plasma, read-out: T1/2 (converted)): 1.62 ± 0.39 h; Tmax (in vivo, GQD-GC group (GQD without Gan-Cao): rats, oral 16.5 g/kg, plasma, read-out: Tmax): 0.35 ± 0.42 h |
| O=c1cc(-c2ccccc2)oc2cc(O)c(O)c(O)c12 [Compound 12, baicalein] | 19.5 ± 11.2 ng·h/mL | 108 ± 47 ng·h/mL | 11.1 ± 0.66 ng/mL | 7.57 ± 0.21 h | 0.42 ± 0.03 h | 3.46 ± 0.34 ng/mL | 5.99 ± 1.23 h | 1 ± 0.64 h | – | – | – | – | – |
